Consider 44 molecules from US11208405B2, “Pyrrole derivatives as PLK1 inhibitors” (SENTINEL ONCOLOGY LIMITED, priority 2017, dated 2021).

Counter-ions that a name gives are not always drawn.

For the assay, the system named is HCT116 cells. The experiment in a line: Effects on HCT116 colorectal cancer cell viability (cell titre blue, 72 hours). The class given is cell-based. Particulars: Homo sapiens, HCT-116, HCT116 cell line. The protocol:
Assay to Measure the Effects of Compounds of the Invention on HCT116 Colorectal Cancer Cell Viability
The following protocol was used to measure the effects of compounds of the invention on HCT116 cell viability.
1. HCT116 cells were grown in RPM11640 media supplemented with Glutamax and 10% FBS in a 37° C./5% CO2 incubator.
2. Growing culture of HCT116 cells were trypsinised, counted and diluted to give 10,000 cells/mL in an appropriate volume, allowing at least 6 mL of cells per plate.
3. 200 μL of PBS were added to all the outer wells of a flat-bottomed (8×12) 96-well TC plate. 100 μL of media were added only to wells in column 11 of the plates (these wells provided a blank for the cell titre blue assay). Two compounds were assayed on each plate.
4. 100 ul of 10,000 cells/mL HCT116s were plated in rows B-G of each plate.
5. The cells were incubated (37° C. 5% CO2) for 24 hours before treating with compounds.
6. An 8 mM compound stock in DMSO was prepared for all compounds to be tested. 2.5 μL of the compound stock was added to 1000 μL growth medium in a 96-well deep well block and serial dilutions were prepared across the plate by transferring 500 μL into wells containing 500 μL growth medium+0.25% DMSO to give eight concentrations of compound (this ensured a constant amount of DMSO at all concentrations of compound). When making up growth medium+DMSO, an amount of 5 ml was allowed per compound to be diluted.
7. 3 rows of cells were treated with 100 μL/well from each row on the dilution plate so that each cell plate is treated with a single compound. This gave a final volume in all wells of 200 μL and a titration of compound from a final concentration of 10 uM down to 78 nM.
8. The cells were incubated (37° C. 5% CO2) for 72 hours.
9. 5 ul cell titre blue reagent (Promega) were added to all wells except the edge wells (which contain PBS only) and incubated (37° C. 5% CO2) for 2.5-3 hours.
10. Fluorescence was measured on a suitable plate reader using a 530-570 nm filter set for excitation and a 580-620 nm filter set for fluorescence emission.
11. Data were analysed using an appropriate graphing package (such as GraphPad Prism). Data were expressed as the concentration of compound causing a 50% inhibition of cell viability or GI50.
Molecule `CN(C)CCNC(=O)c1ccc(-c2ccc(-c3ccc(Cl)cc3)n2-c2ccccc2C(F)(F)F)s1` [Example 99, hydrochloride] yielded a concentration for 50% growth inhibition (GI50) of 40 nM.
The value for `CN(C)CCCNC(=O)c1ccc(-c2ccc(-c3ccc(Cl)cc3)n2-c2cnccc2C(F)(F)F)cc1` [Example 51, hydrochloride] was 100 nM; that for `CN(C)CCNC(=O)c1ccc(-c2ccc(-c3ccc(Cl)cc3)n2-c2ccc(F)cc2C(F)(F)F)cc1` [Example 97, hydrochloride] was 20 nM.
In turn, `COc1cc(-c2ccc(-c3ccc(Br)cc3)n2-c2ccccc2C(F)(F)F)ccc1C(=O)NCCCN(C)C` [Example 31, hydrochloride] had a GI50 of 1450 nM.
The value for `CN(C)CCNC(=O)c1ccc(-c2ccc(-c3ccccc3)n2-c2ccccc2C(F)(F)F)cc1Cl` [Example 39, hydrochloride] was 350 nM; that for `CN(C)CCNS(=O)(=O)c1ccc(-c2ccc(-c3ccc(Br)cc3)n2-c2ccccc2C(F)(F)F)cc1` [Example 44, 4-[5-(4-Bromophenyl)-1-[2-(trifluoromethyl)phenyl]pyrrol-2-yl]-N-[2-(dimethylamino)ethyl]benzenesulfonamide Hydrochloride] was 510 nM.
The result for `CN(C)CCNC(=O)c1cccc(-c2ccc(-c3ccc(F)cc3)n2-c2ccccc2C(F)(F)F)c1` [Example 5, hydrochloride] reads 560 nM; that for `CN(C)CCNC(=O)c1ccc(-c2onc(-c3ccc(Cl)cc3)c2-c2ccccc2C(F)(F)F)cc1` [Example 92, Hydrochloride], 30 nM.
The result for `CN(C)CCNC(=O)c1ccc(-c2ccc(-c3ccc(Cl)cc3)n2-c2ncccc2C(F)(F)F)cc1` [Example 79, hydrochloride] reads 3830 nM; that for `CN(C)CCCNC(=O)c1ccc(-c2ccc(-c3ccc(Cl)cc3)n2-c2cccc(C(F)(F)F)c2)cc1` [Example 78, hydrochloride], 2130 nM; that for `C[C@@H](CNC(=O)c1ccc(-c2ccc(-c3ccc(Cl)cc3)n2-c2ccccc2C(F)(F)F)cc1)N(C)C` [Example 103], 40 nM.
For `CN(C)[C@@H]1CCN(C(=O)c2cccc(-c3ccc(-c4ccc(Br)cc4)n3-c3ccccc3C(F)(F)F)c2)C1` [Example 54, hydrochloride], the GI50 is 1380 nM. Against the preceding molecule, the GI50 is about 34-fold higher.
On to `O=C(c1ccc(-c2ccc(-c3ccc(Cl)cc3)n2-c2ccccc2C(F)(F)F)cc1)N1CCNCC1` [Example 84, hydrochloride], for which it took 190 nM to inhibit growth by half (GI50).
The value for `CN(C)CCC(=O)Nc1ccc(-c2ccc(-c3ccc(Br)cc3)n2-c2ccccc2C(F)(F)F)cc1` [Example 46, N-[4-[5-(4-Bromophenyl)-1-[2-(trifluoromethyl)phenyl]pyrrol-2-yl]phenyl]-3-(dimethylamino) propanamide Hydrochloride] was 160 nM; that for `O=C(NCCN1CCOCC1)c1ccc(-c2ccc(-c3ccc(Cl)cc3)n2-c2cnccc2C(F)(F)F)cc1` [Example 81, hydrochloride] was 80 nM.
The value for `CN(C)CCNC(=O)c1ccc(-c2ccc(-c3ccc(Cl)cc3)n2-c2cnccc2C(F)(F)F)c(F)c1` [Example 89, hydrochloride] was 1360 nM; that for `CN(C)CCNC(=O)c1ccc(-c2ccc(-c3ccccc3)n2-c2cnccc2C(F)(F)F)c(Cl)c1` [Example 67, hydrochloride] was 70 nM; that for `NCCNC(=O)c1ccc(-c2ccc(-c3ccc(Cl)cc3)n2-c2ccccc2C(F)(F)F)cc1` [Example 94, hydrochloride] was 50 nM.
The value for `COCCNC(=O)c1ccc(-c2ccc(-c3ccc(Cl)cc3)n2-c2ccccc2C(F)(F)F)cc1` [Example 86, 4-[5-(4-chlorophenyl)-1-[2-(trifluoromethyl)phenyl]pyrrol-2-yl]-N-(2-methoxyethyl)benzamide] was 340 nM; that for `COc1cc(C(=O)NCCCN(C)C)ccc1-c1ccc(-c2ccc(Cl)cc2)n1-c1cnccc1C(F)(F)F` [Example 74, hydrochloride] was 130 nM.
`CN(C)CCNC(=O)c1ccc(-c2ccc(-c3ccc(Br)cc3)n2-c2ccccc2C(F)(F)F)nc1` [Example 29, 6-[5-(4-Bromophenyl)-1-[2-(trifluoromethyl)phenyl]pyrrol-2-yl]-N-[2-(dimethylamino)ethyl]pyridine-3-carboxamide Hydrochloride] returned a GI50 of 60 nM.
Molecule `O=C(Cc1ccc(-c2ccc(-c3ccc(Cl)cc3)n2-c2ccccc2C(F)(F)F)cc1)NCCN1CCOCC1` [Example 100, hydrochloride] displayed a concentration for 50% growth inhibition (GI50) of 130 nM.
The value for `COc1cc(C(=O)NCCN(C)C)ccc1-c1ccc(-c2ccc(Br)cc2)n1-c1ccccc1C(F)(F)F` [Example 32, hydrochloride] was 60 nM.
The result for `COc1cc(C(=O)NCCN(C)C)ccc1-c1ccc(-c2ccc(Cl)cc2)n1-c1cnccc1C(F)(F)F` [Example 73, hydrochloride] reads 90 nM.
Molecule `CN(C)CCCNC(=O)c1ccc(-c2ccc(-c3ccccc3)n2-c2cnccc2C(F)(F)F)c(Cl)c1` [Example 68, hydrochloride] gave a 50% growth inhibitory concentration (GI50) of 110 nM.
The result for `CN(C)CCCNC(=O)c1ccc(-c2ccc(-c3ccc(Cl)cn3)n2-c2ccccc2C(F)(F)F)cc1` [Example 76, hydrochloride] reads 240 nM.
For the molecule `CN(C)CCNC(=O)c1ccc(-n2ncc(-c3ccc(F)cc3)c2-c2ccccc2C(F)(F)F)cc1` [Example 106, hydrochloride], it took 80 nM to inhibit growth by half (GI50).
Molecule `CN(C)[C@H]1CCN(C(=O)c2cccc(-c3ccc(-c4ccc(Br)cc4)n3-c3ccccc3C(F)(F)F)c2)C1` [Example 55, hydrochloride] showed a GI50 of 2250 nM.
The value for `O=C(O)c1ccc(-c2ccc(-c3ccc(Br)cc3)n2-c2ccccc2C(F)(F)F)cc1` [Example 27, 4-[5-(4-bromophenyl)-1-[2-(trifluoromethyl)phenyl]pyrrol-2-yl]benzoic acid] was 4740 nM; that for `CN(C)CCNC(=O)c1ccc(-c2ccc(-c3ccc(Cl)cn3)n2-c2ccccc2C(F)(F)F)cc1` [Example 75, hydrochloride] was 150 nM; that for `O=C(NCCN[C@H]1CCOC1)c1ccc(-c2ccc(-c3ccc(Cl)cc3)n2-c2cnccc2C(F)(F)F)cc1` [Example 96] was 30 nM.
The value for `O=C(O)c1ccc(-c2ccc(-c3ccc(Br)cc3)n2-c2ccccc2C(F)(F)F)nc1` [Example 30, 6-[5-(4-bromophenyl)-1-[2-(trifluoromethyl)phenyl]pyrrol-2-yl]pyridine-3-carboxylic acid] was 8440 nM.
The result for `CN(C)CCNC(=O)c1ccc(-c2ccc(-c3ccc(Br)cc3)n2-c2ccccc2C(F)(F)F)cc1Cl` [Example 38] reads 190 nM; that for `CN(C)CCNC(=O)c1cccc(-c2ccc(-c3ccc(Oc4ccccc4)cc3)n2-c2ccc(F)cc2)c1` [Example 8, hydrochloride], 1850 nM.
`CN(C)CCNC(=O)c1ccc(-c2ccc(-c3ccc(Cl)cc3)n2-c2cccc(C(F)(F)F)c2)cc1` [Example 77, hydrochloride] had a GI50 of 3630 nM.
Turning to `CN1CCN(C(=O)c2ccc(-c3ccc(-c4ccc(Cl)cc4)n3-c3ccccc3C(F)(F)F)cc2)CC1` [Example 85, hydrochloride], the GI50 was found to be 490 nM.
The value for `CN1CCN(Cc2ccc(-c3ccc(-c4ccc(Br)cc4)n3-c3ccccc3C(F)(F)F)cc2)CC1` [Example 48, hydrochloride] was 410 nM; that for `O=C(O)Cc1ccc(-c2ccc(-c3ccc(Br)cc3)n2-c2ccccc2C(F)(F)F)cc1` [Example 47, 2-[4-[5-(4-Bromophenyl)-1-[2-(trifluoromethyl)phenyl]pyrrol-2-yl]phenyl]acetic Acid] was 1380 nM; that for `CN1CCN(CCNC(=O)c2ccc(-c3ccc(-c4ccc(Cl)cc4)n3-c3ccccc3C(F)(F)F)cc2)CC1` [Example 88, hydrochloride] was 250 nM.
In turn, `CN(C)CCNC(=O)c1ccc(-c2ccc(-c3ccc(Cl)cc3)n2-c2cnccc2C(F)(F)F)cc1` [Example 49, hydrochloride] showed a concentration for 50% growth inhibition (GI50) of 50 nM.
The value for `CN(C)CCNC(=O)c1ccc(-c2ccc(-c3ccc(Br)cc3)n2-c2ccccc2CN(C)C)cc1` [Example 40, hydrochloride] was 1030 nM; that for `CN(C)CCCNC(=O)c1ccc(-n2ncc(-c3ccc(Cl)cc3)c2-c2ccccc2C(F)(F)F)cc1` [Example 105, hydrochloride] was 100 nM; that for `COCc1ccccc1-n1c(-c2ccc(Br)cc2)ccc1-c1ccc(C(=O)NCCN(C)C)cc1` [Example 50] was 2180 nM.
`O=C(c1cccc(-c2ccc(-c3ccc(Br)cc3)n2-c2ccccc2C(F)(F)F)c1)N1CCC(Cc2cccnc2)CC1` [Example 102, hydrochloride] gave a concentration for 50% growth inhibition (GI50) of 380 nM. This GI50 is about 5.7-fold lower than that of the molecule before.

As a reminder, the GI50 is the concentration at which growth is held to half of that of the control.
